Calls of active or inactive are those of the source. The calls are words filed in the database; no cut-off is given here.
What was measured:
NCI-H1299 [1] = assay: Induction of ferroptosis in human NCI-H1299 cells assessed as effect on SLC7A11 protein expression at 10 uM incubated for 24 hrs by Western blotting analysis; format: functional, cell-based
A549 [2] = assay: Induction of apoptosis in human A549 cells assessed as viable cells at 5 uM measured after 48 hrs by Annexin V/FITC staining based flow cytometric analysis (reference value: 90.8 %); format: functional; details: read-out: Activity
NCI-H1299 [3] = assay: Induction of apoptosis in human NCI-H1299 cells assessed as late apoptotic cells at 5 uM measured after 48 hrs by Annexin V/FITC staining based flow cytometric analysis (reference value: 1.96%); format: functional
A549 [4] = assay: Antiproliferative activity against human A549 cells assessed as decrease in EdU positive cells at 4 uM measured after 14 days by Hoechst 33342 staining based fluorescence microscopic analysis; format: functional, cell-based; details: time 14.0 day
[5] = Half life in male Sprague-Dawley rat at 10 mg/kg, iv measured upto 24 hrs by LC-MS/MS analysis; format: ADME, organism-based; details: in vivo
[6] = Tmax in male Sprague-Dawley rat at 10 mg/kg, iv measured upto 24 hrs by LC-MS/MS analysis; format: ADME, organism-based; details: in vivo
[7] = Toxicity in BALB/c mouse assessed as spleen damage at 5 to 10 mg/kg, po administered every 2 days for 2 weeks by H and E staining based analysis; format: organism-based; details: in vivo, 336 h, dose 5-10 mg/kg
A549 [8] = assay: Induction of apoptosis in human A549 cells assessed as late apoptotic cells at 2.5 uM measured after 48 hrs by Annexin V/FITC staining based flow cytometric analysis (reference value: 5.37%); format: functional
NSCLC = assay: Downregulation of TrxR1 expression in human NSCLC cells by IHC analysis; format: functional, cell-based
NCI-H1299 [9] = assay: Induction of apoptosis in human NCI-H1299 cells assessed as early apoptotic cells at 10 uM measured after 48 hrs by Annexin V/FITC staining based flow cytometric analysis (reference value: 1.14 %); format: functional
NCI-H1299 [10] = assay: Induction of apoptosis in human NCI-H1299 cells assessed as necrotic cells at 2.5 uM measured after 48 hrs by Annexin V/FITC staining based flow cytometric analysis (reference value: 0.62%); format: functional
NCI-H1299 [11] = assay: Induction of apoptosis in human NCI-H1299 cells assessed as chromatin condensation upto 10 uM by Hoechst 33258 staining based fluorescence microscopic analysis; format: functional, cell-based
[12] = AUC (0 to t) in male Sprague-Dawley rat at 10 mg/kg, iv measured upto 24 hrs by LC-MS/MS analysis; format: ADME, organism-based; details: in vivo

CCCNC(=O)O[C@@H]1/C=C(\C)C[C@H]2C=C(C[C@@H]3OC(=O)[C@H](CSC(=S)N(C)C)[C@H]31)C(=O)O2
Activity (NCI-H1299 [1]): Active
viability at 5 µM (A549 [2]): 77.8%
Activity (NCI-H1299 [3]): 15.6%
Activity (A549 [4]): Active
half-life [5]: 3.85 h
Tmax [6]: 1.98 min
Activity [7]: Non-toxic
Activity (A549 [8]): 6.69%
Activity (NSCLC): Active
Activity (NCI-H1299 [9]): 8.46%
Activity (NCI-H1299 [10]): 1.2%
Activity (NCI-H1299 [11]): Active
AUC(0-t) at 24 h [12]: 0.997 µg·h/mL

— ChEMBL document CHEMBL6121052, “Design of ROS-Triggered Sesquiterpene Lactone SC Prodrugs as TrxR1 Covalent Inhibitors for the Treatment of Non-Small Cell Lung Cancer” (J Med Chem, 2025)
